# Laboratory results taken from ChEMBL document CHEMBL1139035, “Evaluation of the antioxidant properties of diarylamines in the benzo[b]thiophene series by free radical scavenging activity and reducing power” (Bioorg Med Chem Lett, 2006).
# Key:
# Assay type in all cases: functional
# [1] = tested on: Radical scavenging activity; assay: DPPH radical scavenging activity at 0.0625 g/L
# [2] = tested on: Radical scavenging activity; assay: DPPH radical scavenging activity at 0.250 g/L
# [3] = tested on: Radical scavenging activity; assay: DPPH radical scavenging activity at 0.125 g/L
# [4] = tested on: Radical scavenging activity; assay: DPPH radical scavenging activity at 0.0156 g/L
# [5] = tested on: Radical scavenging activity; assay: DPPH radical scavenging activity at 0.0312 g/L
Structure (SMILES),Activity [1] [%],Activity [2] [%],Activity [3] [%],Activity [4] [%],Activity [5] [%]
COc1ccc(Nc2c(C(=O)O)sc3ccccc23)c(OC)c1,44.7,84,63,8.9,30.7
CCOC(=O)c1sc2ccccc2c1Nc1ccc(F)cc1,0.72,0.9,0.86,0,0.54
COc1ccc(Nc2cc3sc(C)c(C)c3cc2C)cc1OC,74.6,75.4,75,49,65.3
COc1ccc(O)c(C(C)(C)C)c1.COc1ccc(O)cc1C(C)(C)C,75.7,84,83,41.2,63
Cc1cc2c(C)c(C)sc2cc1Nc1ccccc1F,0.52,1.21,0.54,0,0
Cc1cc2c(C)c(C)sc2cc1Nc1ccc(F)cc1,0,2.8,0.4,0,0
Cc1cc(C(C)(C)C)c(O)c(C(C)(C)C)c1,60,83,82.3,28,38.3
COc1ccc(Nc2cc3sc(C)c(C)c3cc2C)cc1,76.6,77,76.8,38.3,68.5
Fc1ccc(Nc2csc3ccccc23)cc1,67.7,85,83.4,26.8,44.7
CCOC(=O)c1sc2ccccc2c1Nc1ccc(OC)cc1,0.4,0.78,0.74,0,0
CCOC(=O)c1sc2ccccc2c1Nc1ccc(OC)cc1OC,51.1,74.8,64.7,20.8,34.8
